Laboratory results: patent publication US20260053811A1, “METHODS OF TREATING HYPERTENSION IN OBESE SUBJECTS” (Mineralys Therapeutics, Inc., priority 2022, published 2026)

Test system: hypertensive subjects
Experiment: Adverse events (TEAEs, SAEs, AESI, study drug discontinuation, dose modification);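 further: counts of spontaneously reported adverse events in the Safety Analysis Set, subjects grouped by treatment actually received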
Type: in vivo, human
Settings: Part 1
Description: In analyses performed on the Safety Analysis Set, subjects will be analyzed according to their actual treatment received.

CC(=O)N[C@H]1CC[C@H](NC(=O)CN2CCN(c3nncc(-c4ccc(C)cc4)n3)CC2)CC1 [Compound A HBr]
9 (30.0) n (%): On-treatment TEAE: Hyperkalaemia (25 mg BID (N = 30))
6 (26.1) n (%): On-treatment TEAE: Metabolism and nutrition disorders (12.5 mg QD (N = 23))
7 (23.3) n (%): On-treatment TEAE: Hyperkalaemia, Mild (25 mg BID (N = 30))
14 (46.7) n (%): On-treatment TEAE: any, Mild (25 mg BID (N = 30))
1 (3.6) n (%): On-treatment TEAE: Cardiac disorders (50 mg QD (N = 28)) | On-treatment TEAE: Gastrointestinal disorders (50 mg QD (N = 28)) | On-treatment TEAE: Gastrointestinal disorders, Mild (50 mg QD (N = 28))
10 (33.3) n (%): On-treatment TEAE: Metabolism and nutrition disorders (25 mg BID (N = 30))
1 (4.3) n (%): On-treatment TEAE: Metabolism and nutrition disorders, Moderate (12.5 mg QD (N = 23)) | On-treatment TEAE: Urinary tract infection (12.5 mg QD (N = 23)) | On-treatment TEAE: Urinary tract infection, Mild (12.5 mg QD (N = 23)) | On-treatment TEAE: Vascular disorders, Moderate (12.5 mg QD (N = 23)) | On-treatment TEAE: any, Severe (12.5 mg QD (N = 23)) | TEAE leading to permanent discontinuation from study drug: Cardiac disorders (12.5 mg QD (N = 23)) | TEAE leading to permanent discontinuation from study drug: Coronary artery disease (12.5 mg QD (N = 23)) | TEAE leading to permanent discontinuation from study drug: Dizziness (12.5 mg QD (N = 23)) | TEAE leading to permanent discontinuation from study drug: Nervous system disorders (12.5 mg QD (N = 23))
3 (10.0) n (%): On-treatment TEAE: Infections and infestations (25 mg BID (N = 30)) | On-treatment TEAE: Investigations (25 mg BID (N = 30)) | On-treatment TEAE: Nervous system disorders (25 mg BID (N = 30)) | On-treatment TEAE: Urinary tract infection (25 mg BID (N = 30))
12 (52.2) n (%): On-treatment TEAE: any, Mild (12.5 mg QD (N = 23))
1 (3.3) n (%): On-treatment TEAE: Cortisol decreased (25 mg BID (N = 30)) | On-treatment TEAE: Cortisol decreased, Mild (25 mg BID (N = 30)) | On-treatment TEAE: Gastrointestinal disorders (25 mg BID (N = 30)) | On-treatment TEAE: Gastrointestinal disorders, Mild (25 mg BID (N = 30)) | On-treatment TEAE: Hypertension (25 mg BID (N = 30)) | On-treatment TEAE: Infections and infestations, Moderate (25 mg BID (N = 30)) | On-treatment TEAE: Investigations, Moderate (25 mg BID (N = 30)) | On-treatment TEAE: Vascular disorders (25 mg BID (N = 30)) | On-treatment TEAE: Vascular disorders, Mild (25 mg BID (N = 30)) | Subjects with any On-treatment TEAEs leading to withdrawal from study drug (25 mg BID (N = 30)) | TEAE leading to permanent discontinuation from study drug: Hyperkalaemia (25 mg BID (N = 30)) | TEAE leading to permanent discontinuation from study drug: Hypertension (25 mg BID (N = 30)) | TEAE leading to permanent discontinuation from study drug: Metabolism and nutrition disorders (25 mg BID (N = 30)) | TEAE leading to permanent discontinuation from study drug: Vascular disorders (25 mg BID (N = 30))
0 n (%): On-treatment TEAE: Infections and infestations, Moderate (12.5 mg QD (N = 23)) | On-treatment TEAE: Investigations, Moderate (12.5 mg QD (N = 23)) | On-treatment TEAE: Psychiatric disorders (12.5 mg QD (N = 23)) | On-treatment TEAE: Psychiatric disorders, Moderate (12.5 mg QD (N = 23)) | TEAE leading to permanent discontinuation from study drug: Activated partial thromboplastin time prolonged (12.5 mg QD (N = 23)) | TEAE leading to permanent discontinuation from study drug: Hypertension (12.5 mg QD (N = 23)) | TEAE leading to permanent discontinuation from study drug: Hypotension (12.5 mg QD (N = 23)) | TEAE leading to permanent discontinuation from study drug: Investigations (12.5 mg QD (N = 23)) | TEAE leading to permanent discontinuation from study drug: Orthostatic hypotension (12.5 mg QD (N = 23)) | TEAE leading to permanent discontinuation from study drug: Vascular disorders (12.5 mg QD (N = 23)) | On-treatment TEAE: Blood creatinine increased (25 mg BID (N = 30)) | On-treatment TEAE: Blood creatinine increased, Mild (25 mg BID (N = 30)) | On-treatment TEAE: Cardiac disorders (25 mg BID (N = 30)) | On-treatment TEAE: Dizziness (25 mg BID (N = 30)) | On-treatment TEAE: General disorders and administration site conditions (25 mg BID (N = 30)) | On-treatment TEAE: General disorders and administration site conditions, Mild (25 mg BID (N = 30)) | On-treatment TEAE: Glomerular filtration rate decreased (25 mg BID (N = 30)) | On-treatment TEAE: Glomerular filtration rate decreased, Mild (25 mg BID (N = 30)) | On-treatment TEAE: Hyperkalaemia, Severe (25 mg BID (N = 30)) | On-treatment TEAE: Hypertension, Moderate (25 mg BID (N = 30)) | On-treatment TEAE: Orthostatic hypotension (25 mg BID (N = 30)) | On-treatment TEAE: Orthostatic hypotension, Mild (25 mg BID (N = 30)) | On-treatment TEAE: Psychiatric disorders (25 mg BID (N = 30)) | On-treatment TEAE: Psychiatric disorders, Moderate (25 mg BID (N = 30)) | On-treatment TEAE: Vascular disorders, Moderate (25 mg BID (N = 30)) | On-treatment TEAE: any, Severe (25 mg BID (N = 30)) | TEAE leading to permanent discontinuation from study drug: Activated partial thromboplastin time prolonged (25 mg BID (N = 30)) | TEAE leading to permanent discontinuation from study drug: Cardiac disorders (25 mg BID (N = 30)) | TEAE leading to permanent discontinuation from study drug: Coronary artery disease (25 mg BID (N = 30)) | TEAE leading to permanent discontinuation from study drug: Dizziness (25 mg BID (N = 30)) | TEAE leading to permanent discontinuation from study drug: Hypotension (25 mg BID (N = 30)) | TEAE leading to permanent discontinuation from study drug: Investigations (25 mg BID (N = 30)) | TEAE leading to permanent discontinuation from study drug: Nervous system disorders (25 mg BID (N = 30)) | TEAE leading to permanent discontinuation from study drug: Orthostatic hypotension (25 mg BID (N = 30)) | On-treatment TEAE: Blood and lymphatic system disorders (50 mg QD (N = 28)) | On-treatment TEAE: Blood and lymphatic system disorders, Mild (50 mg QD (N = 28)) | On-treatment TEAE: Blood creatinine increased (50 mg QD (N = 28)) | On-treatment TEAE: Blood creatinine increased, Mild (50 mg QD (N = 28)) | On-treatment TEAE: Cortisol decreased (50 mg QD (N = 28)) | On-treatment TEAE: Cortisol decreased, Mild (50 mg QD (N = 28))
4 (17.4) n (%): On-treatment TEAE: Metabolism and nutrition disorders, Mild (12.5 mg QD (N = 23)) | Subjects with any On-treatment TEAEs leading to withdrawal from study drug (12.5 mg QD (N = 23))
3 (13.0) n (%): On-treatment TEAE: Investigations (12.5 mg QD (N = 23)) | On-treatment TEAE: Investigations, Mild (12.5 mg QD (N = 23)) | On-treatment TEAE: Vascular disorders (12.5 mg QD (N = 23)) | On-treatment TEAE: any, Moderate (12.5 mg QD (N = 23))
8 (26.7) n (%): On-treatment TEAE: Metabolism and nutrition disorders, Mild (25 mg BID (N = 30))
2 (8.7) n (%): On-treatment TEAE: Nervous system disorders (12.5 mg QD (N = 23)) | On-treatment TEAE: Nervous system disorders, Mild (12.5 mg QD (N = 23)) | On-treatment TEAE: Orthostatic hypotension (12.5 mg QD (N = 23)) | On-treatment TEAE: Orthostatic hypotension, Mild (12.5 mg QD (N = 23)) | On-treatment TEAE: Vascular disorders, Mild (12.5 mg QD (N = 23)) | TEAE leading to permanent discontinuation from study drug: Hyperkalaemia (12.5 mg QD (N = 23)) | TEAE leading to permanent discontinuation from study drug: Metabolism and nutrition disorders (12.5 mg QD (N = 23))
4 (13.3) n (%): On-treatment TEAE: any, Moderate (25 mg BID (N = 30))
2 (6.7) n (%): On-treatment TEAE: Blood and lymphatic system disorders (25 mg BID (N = 30)) | On-treatment TEAE: Blood and lymphatic system disorders, Mild (25 mg BID (N = 30)) | On-treatment TEAE: Headache (25 mg BID (N = 30)) | On-treatment TEAE: Headache, Mild (25 mg BID (N = 30)) | On-treatment TEAE: Hyperkalaemia, Moderate (25 mg BID (N = 30)) | On-treatment TEAE: Infections and infestations, Mild (25 mg BID (N = 30)) | On-treatment TEAE: Investigations, Mild (25 mg BID (N = 30)) | On-treatment TEAE: Metabolism and nutrition disorders, Moderate (25 mg BID (N = 30)) | On-treatment TEAE: Nervous system disorders, Mild (25 mg BID (N = 30)) | On-treatment TEAE: Urinary tract infection, Mild (25 mg BID (N = 30))
2 (7.1) n (%): On-treatment TEAE: Dizziness (50 mg QD (N = 28))
